Like-named read-outs stand apart in the source and are kept apart here.
Assays:
[1] = biological target: T1, catalytic domain of PDE7A1 (aa. 130-482) (Homo sapiens, UniProt Q13946); assay: PDE inhibitor test, PDE7A1 (3H-cAMP hydrolysis); assay type: biochemical; details: substrate at 1/10 of KM; six inhibitor concentrations; duplicate; read-out: Inhibitor data of PDE7A1 (CI50)
T1 construct: The catalytic domain of PDE7A1 (aá. 130-482); made in house; host or cells: E. coli BL21

[2] = biological target: T2, complete enzyme of PDE4D2 (aa. 1-507) (Homo sapiens, UniProt Q08499); assay: PDE inhibitor test, PDE4D2 (3H-cAMP hydrolysis); assay type: biochemical; details: substrate at 1/10 of KM; six inhibitor concentrations; duplicate; read-out: Inhibitor data of PDE4D2 (CI50)
T2 construct: the complete enzyme of PDE4D2 (aa. 1-507); made in house; host or cells: E. coli BL21
Experimental: The catalytic domain of PDE7A1 (aá. 130-482) and the complete enzyme of PDE4D2 (aa. 1-507) were subcloned in pET vectors, overexpressed in E. coli strain BL21, and purified to homogeneity as described in the bibliography (Wang, H., Liu, Y., Chen, Y., Robinson, H., and Ke, H. Multiple elements jointly determine inhibitor selectivity of cyclic nucleotide phosphodiesterases 4 and 7. J. Biol. Chem. 2005, 280, 30949-30955). The enzymatic activities of PDE7A1 and PDE4D2 were tested through incubation of the enzymes with 100 μL of a reaction mixture that contained 50 mM Tris.HCl (pH 8.5), 50 mM MgCl2, 5 mM DTT, and ^3H-cAMP (20000 cpm per test, Sigma-Aldrich) at room temperature during 10 minutes. The reactions were concluded by adding 200 μL 0.2 M ZnSO4 when 20-50% of the cAMP was hydrolysed. The product of the reaction, ^3H-AMP, was precipitated by adding 200 μL 0.25 M Ba(OH)2 (Sigma-Aldrich), while the unreacted ^3H-AMPc remained in the supernatant. Radioactivity of the supernatant was measured with a mixture of scintillation liquid (ScintiSafe PlusTM 50%, Fisher Scientific) using the counter LKB RackBeta 1214.
For inhibitor measurements, six concentrations of inhibitors were used in the presence of a substrate concentration equivalent to 1/10 of the KM and the enzyme concentration that hydrolyses 50% of the substrate. […] All experiments were carried out in duplicate.

[3] = tested on: clone of Th2 lymphocytes (D10.G4.1)
Experimental: Cell toxicity tests were carried out on a clone of Th2 lymphocytes (D10.G4.1) through flow cytometry using Propidium Iodide in order to determine cell death.
After this time, the cells were washed and incubated with 5 μg/ml of Propidium Iodide during 1 min. The samples treated in this way were analysed by cytometry using BD FACSCanto™ equipment.

T-lymphocytes = assay: Study of intracellular cAMP levels (cAMP Biotrak Enzymeimmunoassay); assay type: cell-based; details: inhibitor alone (FIG. 5)
Experimental: PDE inhibition has the direct effect of increasing cAMP, since their degradation is prevented. In order to verify this effect on the cell system of T-lymphocytes two compounds of formula (I) of the invention were chosen, specifically: TC 3.6 and TC 3.14 and cAMP concentration was measured using the cAMP Biotrak Enzymeimmunoassay System of Amersham Biosciences kit.

[4] = D10.G4.1 cells, 1×10^6 cells/ml, 48 h

T2 sequence (Q08499 303-809): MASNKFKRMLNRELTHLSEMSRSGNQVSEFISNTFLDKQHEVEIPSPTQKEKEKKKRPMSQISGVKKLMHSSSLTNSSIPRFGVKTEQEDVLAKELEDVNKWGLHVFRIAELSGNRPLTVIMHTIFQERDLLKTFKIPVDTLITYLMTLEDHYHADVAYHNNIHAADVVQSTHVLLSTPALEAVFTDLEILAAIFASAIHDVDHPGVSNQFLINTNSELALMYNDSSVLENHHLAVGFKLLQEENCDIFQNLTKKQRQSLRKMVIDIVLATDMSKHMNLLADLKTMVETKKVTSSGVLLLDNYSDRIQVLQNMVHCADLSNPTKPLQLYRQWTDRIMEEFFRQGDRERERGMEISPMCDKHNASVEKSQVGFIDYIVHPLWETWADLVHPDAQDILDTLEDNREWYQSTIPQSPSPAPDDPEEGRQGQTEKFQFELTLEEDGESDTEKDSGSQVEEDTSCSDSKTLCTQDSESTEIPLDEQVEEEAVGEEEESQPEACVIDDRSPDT
T1 sequence (Q13946 130-482): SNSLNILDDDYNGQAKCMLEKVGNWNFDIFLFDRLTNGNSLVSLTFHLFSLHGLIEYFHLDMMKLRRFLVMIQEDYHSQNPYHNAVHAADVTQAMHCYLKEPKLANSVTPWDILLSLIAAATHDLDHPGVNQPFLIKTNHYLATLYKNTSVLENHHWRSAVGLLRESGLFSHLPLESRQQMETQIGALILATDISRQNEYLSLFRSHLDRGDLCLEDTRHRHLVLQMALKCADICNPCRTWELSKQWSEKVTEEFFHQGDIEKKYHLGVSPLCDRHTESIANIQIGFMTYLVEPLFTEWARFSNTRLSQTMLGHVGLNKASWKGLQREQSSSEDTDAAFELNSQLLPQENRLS

Row | Compound | IC50 [1] [nM] | maximum concentration at which more than 80% cellular viability was maintained in comparison to the control of cells without inhibitor ([3]; mouse, 48 h) [µM] | also measured
1 | Fc1ccc(-n2c(=S)[nH]c3ccccc3c2=S)c(F)c1F [TC2.45, 3-(2,3,4-Trifluorophenyl)-2,4-dithioxo-1,2,3,4-tetrahydroquinazoline] | > 1000 | – | –
2 | Cc1cccc2c(=O)n(-c3c(F)cccc3F)c(=S)[nH]c12 [TC3.16, 3-(2,6-Difluorophenyl)-8-methyl-4-oxo-2-thioxo-1,2,3,4-tetrahydroquinazoline] | > 1000 | – | –
3 | CSc1nc2c(C)cccc2c(=O)n1-c1ccccc1Br [TC3.22, 3-(2-Bromophenyl)-8-methyl-2-methylthio-4-oxo-3,4-dihydroquinazoline] | 270 ± 20 | 5 | IC50 [2]: 1100 ± 200 nM
4 | CSc1nc2c(C)cccc2c(=O)n1-c1c(F)cccc1F [TC3.23, 3-(2,6-Difluorophenyl)-8-methyl-2-methylthio-4-oxo-3,4-dihydroquinazoline] | 130 ± 20 | 10 | IC50 [2]: 1400 ± 200 nM
5 | Fc1cccc(F)c1-n1c(=S)[nH]c2ccccc2c1=S [TC2.49, 3-(2,6-Difluorophenyl)-2,4-dithioxo-1,2,3,4-tetrahydroquinazoline] | ~1000 | 50 | –
6 | COc1ccc(C2CNC(=O)C2)cc1OC1CCCC1 (stereo not drawn) [Rolipram, reference compound] | – | – | maximum concentration at which more than 80% cellular viability was maintained in comparison to the control of cells without inhibitor [3, 4]: >1000 µM
7 | CSc1nc2ccc(Br)cc2c(=O)n1-c1ccccc1 [TC3.47A, 6-Bromo-3-phenyl-2-methylthio-4-oxo-3,4-dihydroquinazoline] | > 1000 | – | –
8 | 3-(2,6-difluorophenyl)-2-methylthio-4-thioxo-3,4-dihydroquinazoline [TC2.43] | – | – | maximum concentration at which more than 80% cellular viability was maintained in comparison to the control of cells without inhibitor [3, 4]: 5 µM
9 | Cc1cccc2c(=O)n(-c3ccccc3Br)c(=S)[nH]c12 [TC3.14, 3-(2-Bromophenyl)-8-methyl-4-oxo-2-thioxo-1,2,3,4-tetrahydroquinazoline] | 1700 ± 100 | 600 | IC50 [2]: 34000 ± 5000 nM; amount of intracellular cAMP in relation to the control (T-lymphocytes): increased in a statistically significant manner; cell toxicity (in words) [3]: most moderate toxicity
10 | CSc1nc2c(C)cccc2c(=O)n1-c1ccc(F)c(F)c1F [TC3.24, 3-(2,3,4-Trifluorophenyl)-8-methyl-2-methylthio-4-oxo-3,4-dihydroquinazoline] | > 1000 | – | –
11 | CSc1nc2ccccc2c(=S)n1-c1c(F)cccc1F [TC3.1, 3-(2,6-difluorophenyl)-2-methylthio-4-thioxo-3,4-dihydroquinazoline] | 100 to 1000 | 10 | –
12 | CSc1nc2ccc(Br)cc2c(=O)n1-c1ccccc1Br [TC3.35, 6-Bromo-3-(2-bromophenyl)-2-methylthio-4-oxo-3,4-dihydroquinazoline] | 1860 ± 180 | 10 | –
13 | CSc1nc2c(C)cccc2c(=O)n1-c1ccccc1 [TC3.15b, 3-Phenyl-8-methyl-2-methylthio-4-oxo-3,4-dihydroquinazoline] | ~1000 | 600 | cell toxicity (in words) [3]: most moderate toxicity
14 | CSc1nc2ccccc2c(=S)n1-c1ccccc1Br [TC3.13, 3-(2-bromophenyl)-2-methylthio-4-thioxo-3,4-dihydroquinazoline] | 100 to 1000 | 10 | –
15 | Cc1cccc2c(=O)n(-c3ccc(F)c(F)c3F)c(=S)[nH]c12 [TC3.17, 3-(2,3,4-Trifluorophenyl)-8-methyl-4-oxo-2-thioxo-1,2,3,4-tetrahydroquinazoline] | > 10000 | – | –
16 | O=c1c2cc(Br)ccc2[nH]c(=S)n1-c1c(F)cccc1F [TC3.29, 6-Bromo-3-(2,6-difluorophenyl)-4-oxo-2-thioxo-1,2,3,4-tetrahydroquinazoline] | > 10000 | – | –
17 | CSc1nc2ccccc2c(=S)n1-c1ccccc1 [TC3.9, 3-Phenyl-2-methylthio-4-thioxo-3,4-dihydroquinazoline] | 840 ± 10 | 100 | IC50 [2]: 8000 ± 1200 nM
18 | O=c1c2cc(Br)ccc2[nH]c(=S)n1-c1ccccc1 [TC2.30A, 6-Bromo-3-phenyl-4-oxo-2-thioxo-1,2,3,4-tetrahydroquinazoline] | > 10000 | – | –
19 | CSc1nc2ccccc2c(=S)n1-c1ccc(F)c(F)c1F [TC2.51, 3-(2,3,4-trifluorophenyl)-2-methylthio-4-thioxo-3,4-dihydroquinazoline] | > 1000 | – | –
20 | S=c1[nH]c2ccccc2c(=S)n1-c1ccccc1 [TC3.6, 3-Phenyl-2,4-dithioxo-1,2,3,4-tetrahydroquinazoline] | 1040 ± 80 | 1000 | IC50 [2]: 5700 ± 30 nM; amount of intracellular cAMP in relation to the control (T-lymphocytes): increased in a statistically significant manner; cell toxicity (in words) ([3]; D10.G4.1 cells, 48 h, among the compounds of new synthesis): most moderate toxicity
21 | O=c1c2cc(Br)ccc2[nH]c(=S)n1-c1ccc(F)c(F)c1F [TC3.30, 6-Bromo-3-(2,3,4-trifluorophenyl)-4-oxo-2-thioxo-1,2,3,4-tetrahydroquinazoline] | > 10000 | – | –
22 | O=c1c2cc(Br)ccc2[nH]c(=S)n1-c1ccccc1Br [TC3.28, 6-Bromo-3-(2-bromophenyl)-4-oxo-2-thioxo-1,2,3,4-tetrahydroquinazoline] | ~10000 | – | –
23 | Cc1ccc([N+](=O)[O-])cc1S(=O)(=O)N(C)C [BRL50481, 3-(N,N-dimethylsulfonamide)-4-methyl-nitrobenzene, reference compound] | – | – | maximum concentration at which more than 80% cellular viability was maintained in comparison to the control of cells without inhibitor [3, 4]: >1000 µM
24 | CSc1nc2ccc(Br)cc2c(=O)n1-c1ccc(F)c(F)c1F [TC3.32, 6-Bromo-3-(2,3,4-trifluorophenyl)-2-methylthio-4-oxo-3,4-dihydroquinazoline] | 2100 ± 100 | 100 | –
25 | CSc1nc2ccc(Br)cc2c(=O)n1-c1c(F)cccc1F [TC3.36, 6-Bromo-3-(2,6-difluorophenyl)-2-methylthio-4-oxo-3,4-dihydroquinazoline] | 240 ± 30 | 10 | IC50 [2]: 4500 ± 100 nM
